Laboratory results reported in patent US12491188B2, “Small molecule PARG inhibitors and methods of use thereof” (Board of Regents, The University of Texas System, priority 2019, dated 2025).

Columns and labels:
[1] = test system: PARP inhibitor resistant SUM149PT cells; assay: PAR and γH2AX high content imaging in PARPi resistant cells; type: cell-based, human; conditions: 10 μM, 2 hours, 3 Gy IR; four PARPi resistant clones and wild type
Procedure: PARPi resistant SUM149PT cells clone 6, 10, 11, 18 together with the wild type (WT) were treated with 10 μM JA2131 for 2 hours, irradiated 3Gy ionizing radiation and then fixed, immunofluorescence labelled for PAR and γH2AX. High content imaging showing specific accumulation of PAR and DNA damage induction observed with γH2AX signal in cells treated with PARGi. (Right) Immunoblotting of total cell-lysates of PARP1i resistant SUM149PT cells showing no change in the PARG (upper panel) and p53 (middle panel) protein expression level. Anti-actin was used as loading control (bottom panel).
PARG was evaluated as a therapeutic option for patients who become PARP1 inhibitor resistant. PARP1 inhibitor resistant SUM149PT triple negative breast cancer cell-lines were generated with 100 nM talazoparib for 5 constitutive days and then with 15-50 nM talazoparib until resistant cells grew into clones. The resulting resistant cell clones were propagated and expanded to generate PARP inhibitor resistant SUM149PT derivative cells that no longer responded to PARP1i treatment. It was then investigated whether the PARP resistant breast cancer cells would respond to the PARG inhibitors. Four PARPi resistant SUM149PT cell clones together with wild type cells were treated with JA2131. PAR accumulation and γH2AX foci formation were analyzed by high content imaging (FIG. 21).

[2] = test system: MDA-MB-231 control and PARG-KD cells; assay: Sulforhodamine B (SRB) cytotoxicity, control vs PARG-KD cells; type: cell-based, human; conditions: 72 h
Text: Sulforhodamine B (SRB) Cytotoxicity Assay.

human PARG = human PARG (Homo sapiens (Human), UniProt Q86W56); assay: Gel-based PARG activity assay; type: biochemical
human PARG, sequence (Q86W56 389-976): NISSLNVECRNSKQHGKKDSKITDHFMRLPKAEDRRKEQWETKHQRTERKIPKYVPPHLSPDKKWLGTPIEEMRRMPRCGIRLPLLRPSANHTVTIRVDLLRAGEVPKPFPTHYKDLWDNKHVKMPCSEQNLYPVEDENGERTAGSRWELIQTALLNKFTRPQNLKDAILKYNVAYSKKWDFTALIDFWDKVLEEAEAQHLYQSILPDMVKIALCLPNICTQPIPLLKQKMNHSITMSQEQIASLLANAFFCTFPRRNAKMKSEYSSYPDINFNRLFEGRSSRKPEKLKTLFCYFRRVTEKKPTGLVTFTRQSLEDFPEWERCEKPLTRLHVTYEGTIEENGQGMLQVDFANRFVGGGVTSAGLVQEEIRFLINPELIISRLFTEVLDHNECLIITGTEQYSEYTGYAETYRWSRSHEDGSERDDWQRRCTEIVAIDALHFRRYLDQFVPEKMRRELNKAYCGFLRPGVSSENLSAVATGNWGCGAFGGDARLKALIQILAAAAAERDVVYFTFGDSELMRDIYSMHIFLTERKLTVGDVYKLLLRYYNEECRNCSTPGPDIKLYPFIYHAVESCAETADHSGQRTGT
Procedure: FIGS. 9a & 9b show structure-activity relationships (SAR) of compounds from five main chemotypes. (FIG. 9a) A total of 34 representative HTS hits and commercially available analogues from each chemotype (FIG. 7 and FIG. 29) were analyzed using the gel-based PARG activity assay. This gel-based assay directly monitors the change of PARylation status of PARP1 as a substrate of PARG. […] The reaction was quenched after a 30 min incubation at room temperature by adding SDS-PAGE sample buffer. PARylated PARP1C runs as a smear on SDS-PAGE that is reduced to a single band by PARG treatment. […] (FIG. 9b) Quantification of the dose-response PARG inhibition by JA2-3 using the gel-based PARG activity assay. hPARG (1 nM) was preincubated with increasing concentrations (0.032-1 μM) of JA2-3 for 1 hr at room temperature before PARylated PARP1C (500 nM) was added. The reaction was quenched after a 30 min incubation at room temperature. PARylated PARP1C migrates slower than unmodified PARP1C and was quantified using ImageJ. To determine the IC50 value, the dose-response data were plotted as a function of JA2-3 concentration and fitted to the four-parameter logistic equation using SigmaPlot. The rate of the PARG-dependent signal loss in the TR-FRET PAR turnover assay is not equivalent to the steady-state rate of PAR turnover, because the TR-FRET assay can't detect signal loss until the length of PAR chains become shorter than 7 ADP-ribose units. Therefore, the gel-based PARG activity assay to accurately determine the IC50 values throughout the present disclosure.
Gel-based PARG activity assay. PARP1C (2 μM) is enzymatically auto-modified in a reaction containing the PARP1 DBD (2 μM), a 24 mer nicked DNA oligo (2 μM), and NAD+(300 μM) for 1 hr at 37° C., as described previously (Kim et al., 2012). Human PARG^389-976 (1 nM) was pre-incubated with compounds for 1 hr at room temperature. The reaction was initiated by addition of PARylated PARP1 (final concentration of 500 nM) and quenched after 30 min incubation at room temperature by adding SDS-PAGE sample buffer. The gel was visualized by sypro-ruby staining (Kim et al., 2012) and the retained PARylated PARP1C species were quantified using ImageJ (Schneider et al., 2012).
PARylated PARP1C that migrates slower than unmodified PARP1C was quantified. […] The IC50 values were determined by fitting the dose-response data for each compound to a four-parameter logistic equation using SigmaPlot (Systat Software Inc.).
To test specificity of JA2131, human PARG^389-976 (1 nM) was pre-incubated with JA2131 (5, 10, and 20 μM) in the presence and absence of 0.1% Triton-X 100 or 0.1 mg/ml BSA for 1 hr at room temperature. The reaction was initiated, quenched, visualized, and quantified as described above.

HeLa cells = assay: DNA fiber assay, replication fork progression; type: cell-based; conditions: 10 μM, 2 hrs pretreatment
Procedure: DNA fiber assay. DNA fiber assay was conducted as described previously (Castillo et al. 2014). Briefly, cells pretreated with JA2131 (10 μM) or DMSO for 2 hrs were labeled with 100 μM CldU for 30 min and exposed to 250 μM IdU (with or without 0.4 mM hydroxyurea treatment) for another 30 min or 3 hrs. After labeling and treatment, cells were lysed and DNA fibers stretched onto glass slides. Immunofluorescence was carried out using α-IdU/α-BrdU (BD Biosciences) and α-CldU/α-BrdU (Abcam) and secondary antibodies, including Alexa Fluor 488 (green) and Alexa Fluor 555 (Invitrogen). Images were taken using a Nikon 80 microscope and analyzed using ImageJ software. Statistics were calculated using Prism software. 5-Chloro-2′-deoxyuridine (CIdU) and 5-Iodo-2′-deoxyuridine (IdU) were from Sigma.

SMILES: O=C1C(Cl)=C(Cl)C(Cl)(Cl)C(Cl)=C1Cl [JA2131]
- PAR accumulation and γH2AX staining [1]: increased PAR accumulation as well as γH2AX staining
- IC50 value for PARG-depleted cells compared to control cells [2]: ~10 fold
- PARG-KD cells that responded to the PARGi [2]: 50%
- effect of detergent or non-specific protein on PARG inhibitory potency (human PARG; 0.1% Triton-X 100 or 0.1 mg/ml BSA, JA2131 5, 10, 20 μM): Neither the addition of Triton-X 100 nor BSA significantly altered the inhibitory potency
- IC50 of PARG inhibition (human PARG; hPARG 1 nM, PARylated PARP1C 500 nM): sub-micromolar
- IC50 (human PARG; hPARG 1 nM, PARylated PARP1C 500 nM, read-out: IC50 of PARG inhibition): 400 nM
- increase in potency of JA2131 (6′-thiocarbonyl) in comparison to JA2120 (6′-carbonyl) (human PARG; ratio of IC50 values): more than 50 fold
- average IdU tract (HeLa cells; absence of genotoxic stress): 6.0 μm
- average IdU tract length (HeLa cells; low dose of hydroxyurea): 5.0 μm
